Experimental data taken from patent US20260207699A1, “PHARMACEUTICAL COMPOSITION OF KAPPA OPIOID RECEPTOR AGONIST, PREPARATION METHOD THEREFOR, AND USE THEREOF” (YICHANG HUMANWELL PHARMACEUTICAL CO., LTD., priority 2022, published 2026).
Structures can show the parent of a compound that is named as a salt.

Tests used:
[1] = Stability of salts of compound of formula (II), high temperature test (40° C.); assay type: physicochemical; details: for stability at high temperature of 40° C. and under light of 4500 Lux: up to 30 days
Protocol: (§1) Samples of acetate salt, citrate salt, and phosphate salt of the compound of formula (II) were placed for investigation respectively, and the investigation conditions were high temperature test (40° C.) and light (4500 Lux). The investigation period was 5 days, 10 days and 30 days.

[2] = Stability of salts of compound of formula (II), light (4500 Lux); assay type: physicochemical
Protocol: as §1

[3] = Conventional injection, sterilization according to conventional requirements; assay type: physicochemical; details: prepared into a conventional injection
Protocol: After the cooled pharmaceutical solution is centrifuged at 3000 rpm to 10000 rpm, the precipitate is collected and detected by mass spectrometry (mass spectrometry conditions: chromatographic column: ACQUITY UPLC BEH C8, 50 mm×2.1 mm, 1.7 μm (20180306-C8-08); mobile phase A: 0.1% formic acid/water; mobile phase B: 0.1% formic acid/acetonitrile; flow rate: 0.2 ml/min; column temperature: 30° C.; detector wavelength: UV-210 nm; QDa; cone voltage: positive scan 10 volts, negative scan 5 volts; capillary voltage: plus 1.5 kV, minus 0.5 kV). Based on the detected MS values, it is speculated that the white flocculent precipitate is a degradation impurity as shown in the following formula: […]

mechanical allodynia = assay: Rat postoperative analgesic model, mechanical allodynia (paw withdrawal threshold); assay type: in vivo, Sprague-Dawley rats; details: 3 mg/kg
Protocol: (§2) Test sample: Prescription 5 of Example 9 of the present application was used as the test sample.
Sprague-Dawley rats, SPF grade, male, weighing 200 g-220 g, raised in a constant temperature environment, temperature (20±2) ° C., humidity 40%-70%; the raising environment was with a light rhythm 12 h:12 h (6:00-18:00), free feeding and water, and adaptive feeding for 1 week.
Animals were anesthetized with Zoletil (6 mg/kg)+xylazine ([…], i.p.). The toes of the animals were squeezed to confirm that the animals were fully anesthetized prior to surgery. The skin of the surgical area on the plantar site of the left hind foot was disinfected three times using iodophor and 70% ethanol. Wait until the skin was dry, to start the surgery. An incision about 1 cm long was made longitudinally toward the toe from the heel position. After incising the skin, the flexor digitorum brevis was lifted and a longitudinal blunt injury was caused. After pressing to stop bleeding, the wound was sutured. After surgery, the animals were placed on electric blankets, and returned to the cage when the animals were fully awake (free to move).
Twenty-four hours after surgery, the baseline test of mechanical allodynia was performed on rats. […] At the same time, 10 rats of the same batch were taken as the control of the normal group. Mechanical allodynia tests were performed at 0.5 h, 1 h, and 1.5 h after administration, respectively.
The rats were individually placed in a plexiglass box with a grid at the bottom to ensure that the rat feet could be tested. Rats would acclimatize for 15 minutes prior to the test. After completion of the acclimatizing, test fiber (Touch-Test Sensory Evaluator) was used to test at the central plantar site of the left hind foot of the rats. In the test, the test fiber was pressed vertically against the skin and force was applied to bend the fiber for 6-8 seconds, with 5 seconds apart between each test. In the test, an animal's rapid withdrawal of the foot was noted as a pain response.

[4] = test system: chloroquine-induced pruritus; assay: Chloroquine-induced pruritus model of ICR mice; assay type: in vivo; details: 3 mg/kg subcutaneously
Protocol: as §2
ICR mice, SPF grade, male, weighing 30 g-40 g, raised in a constant temperature environment, temperature (20±2) ° C., humidity 40%-70%; the raising environment was with a light rhythm 12 h:12 h (6:00-18:00), free feeding and water, and adaptive feeding for 1 week.
The mice were shaved on the back of the neck. After shaving, the animals were weighed, and the mice were randomly divided into 5 groups of 10 animals per group according to their body weight, which were the vehicle control group; ICI204448 (CAS No.: 121264-04-8, positive control drug) control group (3 mg/kg); Test group 1 (0.1 mg/kg); Test group 2 (0.5 mg/kg); and Test group 3 (1.5 mg/kg). After the corresponding drugs were administered subcutaneously according to groups, 400 μg of chloroquine, a pruritus model inducer, was intradermally injected into the shaved area of the back of the neck of mice. Following intradermal injection of chloroquine, mice were individually placed in transparent plexiglass boxes and the number of scratches over 30 min was counted.

| Structure (SMILES) | HPLC purity (%) ([1]; 0 days) | HPLC purity (%) ([1]; 40° C., 5 days) | HPLC purity (%) ([1]; 40° C., 10 days) | HPLC purity (%) ([1]; 40° C., 30 days) | stability at high temperature of 40° C. and under light of 4500 Lux [1] | HPLC purity (%) ([2]; 5 days) | HPLC purity (%) ([2]; 10 days) | HPLC purity (%) ([2]; 30 days) | appearance after sterilization when cooled to room temperature [3] | Pain inhibition rate (mechanical allodynia; 0.5 hours after administration) [%] | Pain inhibition rate (mechanical allodynia; 1 hours after administration) [%] | Pain inhibition rate (mechanical allodynia; 1.5 hours after administration) [%] | Inhibition rate ([4]; scratches over 30 min) [%] | Number of scratches (mean ± standard error) ([4]; scratches over 30 min after 400 μg chloroquine intradermal) |
| --- | --- | --- | --- | --- | --- | --- | --- | --- | --- | --- | --- | --- | --- | --- |
| CC(C)C[C@@H](NC(=O)[C@@H](Cc1ccccc1)NC(=O)[C@H](N)[C@H](C)c1ccccc1)C(=O)N[C@H](CCCCN)C(=O)N1CCC(N)(C(=O)O)C1 (stereo partly drawn) [Acetate salt (1:1)] | 97.9 | 97.7 | 97.5 | 97.1 | better stability | 97.9 | 97.8 | 97.6 |  |  |  |  |  |  |
| CC(C)C[C@@H](NC(=O)[C@@H](Cc1ccccc1)NC(=O)[C@H](N)[C@H](C)c1ccccc1)C(=O)N[C@H](CCCCN)C(=O)N1CCC(N)(C(=O)O)C1 (stereo partly drawn) [Citrate salt (1:1)] | 96.8 | 95.7 | 94.6 | 93.5 | degraded in different degrees | 96.2 | 95.5 | 94.7 |  |  |  |  |  |  |
| CC(C)C[C@@H](NC(=O)[C@@H](Cc1ccccc1)NC(=O)[C@H](N)[C@H](C)c1ccccc1)C(=O)N[C@H](CCCCN)C(=O)N1CCC(N)(C(=O)O)C1 (stereo partly drawn) [compound (II)] |  |  |  |  |  |  |  |  | a flocculent precipitate is separated out |  |  |  |  |  |
| CN1CC[C@]23c4c5ccc(O)c4O[C@H]2[C@@H](O)C=C[C@H]3[C@H]1C5 [Morphine, morphine] |  |  |  |  |  |  |  |  |  | 122.5 | 84.2 | 27.9 |  |  |
| CC(C)C[C@@H](NC(=O)[C@@H](Cc1ccccc1)NC(=O)[C@H](N)[C@H](C)c1ccccc1)C(=O)N[C@H](CCCCN)C(=O)N1CCC(N)(C(=O)O)C1 (stereo partly drawn) [Phosphate salt (1:1)] | 96.5 | 95.6 | 94.3 | 92.3 | degraded in different degrees | 96.2 | 95.1 | 94.2 |  |  |  |  |  |  |
| CN(C(=O)Cc1ccc(Cl)c(Cl)c1)C(CN1CCCC1)c1cccc(OCC(=O)O)c1 (stereo not drawn) [ICI204448] |  |  |  |  |  |  |  |  |  |  |  |  | 97.4 | 7.3 ± 2.43 |
